# Results published in ChEMBL document CHEMBL2417430, “A synthetic approach to novel carvotacetone and antheminone analogues with anti-tumour activity” (Bioorg Med Chem Lett, 2013).
# pIC50: −log10 of the molar value.
# Tested on: MCF-10A
# Experiment: Cytotoxicity against human MCF10A cells after 4 days by MTT assay
# Type: cell-based
# Settings: 96 h
row,SMILES,pIC50
1,C/C=C/C(=O)OCC1=C[C@H](O)[C@@H](c2ccccc2)CC1=O,5.74

# Tested on: A549
# Experiment: Cytotoxicity against human A549 cells after 4 days by MTT assay
# Type: functional, cell-based
# Settings: A549, 96 h
row,SMILES,pIC50
1,CC(C)[C@H]1CC(=O)C(CO)=C[C@@H]1O,3.80
2,C/C=C/C(=O)OCC1=C[C@H](O)[C@@H](C(C)C)CC1=O,4.85
3,C/C=C/C(=O)OCC1=C[C@H](O)[C@H](c2ccccc2)CC1=O,5.10
4,C/C=C/C(=O)OCC1=C[C@H](O)[C@@H](c2ccccc2)CC1=O,5.89
5,C/C=C/C(=O)OCC1=C[C@@H](O)CCC1=O,4.78
6,C/C=C/C(=O)OCC1=C[C@H](O)[C@@H]2C[C@@H]2C1=O,4.74
